Columns and labels:
Type in all cases: biochemical
Settings in all cases: fluorogenic substrate 50 μM; test concentrations 1000 nM to 0.32 nM
Caspase-1 = molecular target: T1, Caspase-1 (Homo sapiens, UniProt P29466); experiment: In vitro inhibitory activity on Caspase-1 (BioVision Caspase-1 Inhibitor Screening Kit)
T1 construct: purchased BioVision K151-100
T1 sequence (P29466 120-297 limits assumed): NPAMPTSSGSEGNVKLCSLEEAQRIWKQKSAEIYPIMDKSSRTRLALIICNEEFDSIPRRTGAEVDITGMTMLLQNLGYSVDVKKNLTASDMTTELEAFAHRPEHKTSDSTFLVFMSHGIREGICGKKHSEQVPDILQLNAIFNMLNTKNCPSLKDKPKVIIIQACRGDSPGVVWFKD
T1 sequence (P29466 317-404 limits assumed): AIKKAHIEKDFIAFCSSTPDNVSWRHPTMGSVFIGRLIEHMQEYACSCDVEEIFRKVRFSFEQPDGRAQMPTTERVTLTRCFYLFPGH
Protocol: (§1) Caspase Inhibitor Screening Kit for BioVision was used in this experiment to test the inhibitory activity of the test compounds on Caspase.
Caspase-1 Inhibitor Screening Kit (BioVision #K151-100)
(§2) Note: Each caspase enzymatic experiment uses the reagents in corresponding kit thereof. Each enzyme was dissolved in 550 μl of the corresponding 2× reaction buffer, sub-packed and stored at −80° C., respectively.
(§3) 1) The compound was diluted to a 200*test concentration with DMSO via the multiple dilution, then to a 2*test concentration with ddH2O, and added to a 384-well experimental plate at 12.5 μl per well. Test compounds and control compounds were tested at 6 concentration points, test concentrations ranging from 1000 nM to 0.32 nM. The ddH2O containing 1% DMSO was added to the 0% inhibition control well, and a high concentration of the control compound was added to the 100% inhibition control well (final concentration: 5 μM).
(§4) 2) 2× reaction buffer containing 10 mM DTT was prepared. The enzyme caspase stock solution was diluted 5-fold with 2× reaction buffer containing 10 mM DTT and added to a 384-well experimental plate at 6.25 μl per well. After being mixed, the enzyme and compounds were incubated at 37° C. for 30 minutes.
(§5) 3) The fluorogenic substrate of the enzyme caspase was diluted 5-fold with 2× reaction buffer containing 10 mM DTT, and then added to a 384-well experimental plate at 6.25 μl per well. The total reaction volume was 25 μl, the final concentration of the substrate was 50 μM, and the final concentration of DMSO was 0.5%. After the substrate was added, the 384-well experimental plate was incubated at 37° C. for 30 minutes.
(§6) 4) The fluorescence intensity (excitation light wavelength was 400 nm, emission light wavelength was 505 nm) was measured by using a multi-function microplate reader. Fluorescence intensity was used to calculate the inhibitory effect of the compounds on Caspase. GraphPad Prism software was used for fitting compound inhibition curves and calculating IC50 values.

Caspase-3 = molecular target: T2, Caspase-3 (Homo sapiens, UniProt P42574); experiment: In vitro inhibitory activity on Caspase-3 (BioVision Caspase-3 Inhibitor Screening Kit)
T2 construct: purchased BioVision K153-100
T2 sequence (P42574 29-175 limits assumed): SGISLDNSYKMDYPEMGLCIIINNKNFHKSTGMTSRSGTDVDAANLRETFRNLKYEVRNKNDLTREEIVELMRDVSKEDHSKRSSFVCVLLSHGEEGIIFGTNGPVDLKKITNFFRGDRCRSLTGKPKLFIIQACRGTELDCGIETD
T2 sequence (P42574 176-277 limits assumed): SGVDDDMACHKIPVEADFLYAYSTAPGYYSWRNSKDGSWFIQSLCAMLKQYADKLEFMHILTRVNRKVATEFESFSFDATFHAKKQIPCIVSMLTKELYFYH
Protocol: as §1
Caspase-3 Inhibitor Screening Kit (BioVision #K153-100)
as §2, §3, §4, §5, §6

Caspase-8 = molecular target: T3, Caspase-8 (Homo sapiens, UniProt Q14790); experiment: In vitro inhibitory activity on Caspase-8 (BioVision Caspase-8 Inhibitor Screening Kit)
T3 construct: purchased BioVision K158-100
Protocol: as §1
Caspase-8 Inhibitor Screening Kit (BioVision #K158-100)
as §2, §3, §4, §5, §6

T3 sequence (Q14790 217-374 limits assumed): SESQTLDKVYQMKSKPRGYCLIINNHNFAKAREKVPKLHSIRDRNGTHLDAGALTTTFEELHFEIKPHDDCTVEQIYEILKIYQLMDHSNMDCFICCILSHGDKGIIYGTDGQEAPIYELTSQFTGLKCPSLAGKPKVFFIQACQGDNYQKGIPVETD
T3 sequence (Q14790 385-479 limits assumed): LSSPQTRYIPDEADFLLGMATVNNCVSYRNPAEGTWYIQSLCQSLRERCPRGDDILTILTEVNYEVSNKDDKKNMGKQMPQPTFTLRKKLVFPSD

Compound | IC50 (Caspase-1) [nM] | IC50 (Caspase-3) [nM] | IC50 (Caspase-8) [nM]
C[C@H](NC(=O)c1cc(-c2ccccc2)on1)C(=O)N[C@@H](CC(=O)O)C(=O)COc1c(F)c(F)cc(F)c1F [Example 9] | 14.2 | 44.4 | 23.2
C[C@H](NC(=O)c1c[nH]c(-c2ccccc2)n1)C(=O)N[C@@H](CC(=O)O)C(=O)COc1c(F)c(F)cc(F)c1F [Example 3] | 4.8 | 24 | 25.9

— patent US11434212B2, “Bicyclic compound as a caspase inhibitor” (CHIA TAI TIANQING PHARMACEUTICAL GROUP CO., LTD., priority 2017, dated 2022)
